Experiments:
[1] = biological target: T1, Dual specificity protein kinase TTK (Homo sapiens, UniProt P33981); test: Inhibition of full-length Mps1 kinase (unknown origin)
T1 sequence (P33981 whole entry): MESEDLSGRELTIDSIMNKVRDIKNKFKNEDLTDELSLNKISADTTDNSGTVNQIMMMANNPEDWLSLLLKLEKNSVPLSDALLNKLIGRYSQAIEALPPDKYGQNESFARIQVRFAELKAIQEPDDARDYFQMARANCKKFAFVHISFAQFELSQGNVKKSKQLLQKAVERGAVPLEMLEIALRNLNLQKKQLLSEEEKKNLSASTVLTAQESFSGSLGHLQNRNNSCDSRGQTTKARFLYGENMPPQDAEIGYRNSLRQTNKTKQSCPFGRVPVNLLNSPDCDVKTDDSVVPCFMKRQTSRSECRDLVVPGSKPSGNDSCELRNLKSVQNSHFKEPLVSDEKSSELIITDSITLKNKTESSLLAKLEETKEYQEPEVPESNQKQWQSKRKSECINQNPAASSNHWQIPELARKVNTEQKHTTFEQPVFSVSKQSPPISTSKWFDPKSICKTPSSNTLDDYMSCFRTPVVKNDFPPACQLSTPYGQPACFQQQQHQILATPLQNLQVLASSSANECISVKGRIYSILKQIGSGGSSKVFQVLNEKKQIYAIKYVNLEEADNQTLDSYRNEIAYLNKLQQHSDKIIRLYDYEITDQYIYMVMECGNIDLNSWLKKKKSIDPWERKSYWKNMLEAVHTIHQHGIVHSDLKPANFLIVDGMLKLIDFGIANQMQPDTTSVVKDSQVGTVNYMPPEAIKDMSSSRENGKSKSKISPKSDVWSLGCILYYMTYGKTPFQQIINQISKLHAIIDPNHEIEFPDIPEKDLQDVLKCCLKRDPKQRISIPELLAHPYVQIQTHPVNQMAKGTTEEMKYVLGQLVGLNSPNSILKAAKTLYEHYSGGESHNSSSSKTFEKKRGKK

HCT-116 = test: Cytotoxicity against human HCT116 cells; format: functional, cell-based

IC50 [1] | Compound | IC50 (HCT-116)
> 100 nM | COc1cc(N2CCN(S(C)(=O)=O)CC2)ccc1Nc1ncc2ccn(-c3ccccc3)c2n1 | 
2 nM | COc1cc(N2CCN(S(C)(=O)=O)CC2)ccc1Nc1ncc2cccc(NC3CCCCC3)c2n1 | 810 nM
> 100 nM | COc1cc(N2CCN(S(C)(=O)=O)CC2)ccc1Nc1nccc(NC2CCCCC2)n1 | 
46 nM | COc1cc(N2CCOCC2)ccc1Nc1ncc2ccn(C3CCCCC3)c2n1 | 7500 nM
9 nM | COc1cc(N2CCOCC2)ccc1Nc1ncc2cccc(NC3CCCCC3)c2n1 | 6320 nM
32 nM | COc1cc(N2CCN(S(C)(=O)=O)CC2)ccc1Nc1ncc2ccn(-c3ccccn3)c2n1 | 10000 nM
12 nM | COc1cc(N2CCOCC2)ccc1Nc1ncc2cccc(-c3ccccc3)c2n1 | 850 nM
5 nM | COc1cc(N2CCN(S(C)(=O)=O)CC2)ccc1Nc1ncc2cccc(-c3ccccc3)c2n1 | 1740 nM
> 100 nM | COc1cc(N2CCOCC2)ccc1Nc1ncc2ccc(NC3CCCCC3)cc2n1 | 

More lines, now with the values behind:

Compound | IC50 [1] | IC50 (HCT-116)
COc1cc(N2CCOCC2)ccc1Nc1ncc2ccc(-c3ccccc3)cc2n1 | > 100 nM | 
Cc1cc(N2CCOCC2)ccc1Nc1ncc2ccn(C3CCCCC3)c2n1 | 22 nM | 8600 nM
Cc1cc(N2CCOCC2)ccc1Nc1nc(NC2CCCCC2)c2nc[nH]c2n1 |  | 23 nM
COc1cc(N2CCN(S(C)(=O)=O)CC2)ccc1Nc1ncc2ccn(-c3cccnc3)c2n1 | > 100 nM | 
COc1cc(N2CCN(S(C)(=O)=O)CC2)ccc1Nc1ncc(C)c(NC2CCCCC2)n1 | 28 nM | 1500 nM
COc1cc(N2CCN(S(C)(=O)=O)CC2)ccc1Nc1ncc(C)c(N(C)C2CCCCC2)n1 | > 100 nM | 
COc1cc(N2CCN(S(C)(=O)=O)CC2)ccc1Nc1nccc(N(C)C2CCCCC2)n1 | 35 nM | 2000 nM
COc1cc(N2CCN(S(C)(=O)=O)CC2)ccc1Nc1ncc2ccn(C3CCCCC3)c2n1 | 20 nM | 750 nM
COc1cc(N2CCN(S(C)(=O)=O)CC2)ccc1Nc1ncc2cccc(-c3cccnc3)c2n1 | 8 nM | 1580 nM

Source: ChEMBL document CHEMBL3091390, “Novel Mps1 kinase inhibitors: from purine to pyrrolopyrimidine and quinazoline leads” (Bioorg Med Chem Lett, 2013)
